Source: patent US20230248722A1, “CLOFAZIMINE COMPOSITION AND METHOD FOR THE TREATMENT OR PROPHYLAXIS OF VIRAL INFECTIONS” (priority 2020, published 2023)

Tested on: SARS-CoV-2
Assay type: cell-based
Details: in vitro; 2.5 μM (or ~1.2 μg clofazimine/ml)

## CC(C)/N=c1\cc2n(-c3ccc(Cl)cc3)c3ccccc3nc-2cc1Nc1ccc(Cl)cc1 [clofazimine, N,5-bis(4-chlorophenyl)-3-propan-2-yliminophenazin-2-amine]
  reduce or eliminate viral replication: 40%
